Laboratory results: patent publication US11708366B2, “Heteroaryl substituted spiropiperidinyl derivatives and pharmaceutical uses thereof” (Novartis AG, priority 2020, dated 2023)

Assays:
[1] = target: T1, LTC4S (Homo sapiens (Human), UniProt Q16873); assay: Human LTC4S enzymatic assay (HTRF detection of LTC4-Me); format: biochemical
Experimental: A. Human LTC4S Enzymatic Assay:
LTC4 synthase catalyzes the conversion of Leukotriene A4 (LTA4) to Leukotriene C4 (LTC4) in the presence of reduced glutathione (GSH) as a co-substrate. For compound testing, compounds are delivered as 10 mM stock solutions in 90% DMSO in matrix tubes. From this, a 1:3 dilution dose response series is prepared with a starting concentration of 30 μM to 0.1 nM. For the enzymatic assay 97.5 nL of compound/DMSO solution is transferred to each well and 5 μL enzyme solution (assay buffer: 50 mM bis-tris propane pH 7.3, 250 mM NaCl, 10 mM MgCl2, 0.001% MGN3) is added to the wells. […] The enzyme compound mixture is incubated at room temperature for 15 minutes prior to the addition of 5 μL substrate solution. […] A final substrate concentration of 400 μM GSH and 5 μM LTA4-Me is chosen.
The LTA4-Me is obtained commercially in 2% triethylamine/hexane solvent. As this solvent is incompatible with the HTRF assay it has to be exchanged with DMSO according to following procedure: add 50 μL of 100% DMSO to 50 μL LTA4-Me (3 mM) in a 2 mL Eppendorf tube and mix gently by inverting the tube. The triethylamine/hexane is evaporated under a constant argon flux at room temperature. The DMSO-LTA4-Me (3 mM) is aliquoted and stored at −20° C. for not longer than 4 weeks, as it is not stable in DMSO due to its oxidizing properties.
Upon addition of the substrate, the plate is immediately placed on a shaker for 5 min at room temperature. Immediately after the 5 min incubation 5 μL of H2O2 solution is added to all wells to stop the reaction. The plate contents are mixed before the addition of detection reagents. […] For the detection of the product of the enzymatic reaction LTC4-Me, the Cisbio LTC4-HTRF kit is used as the assay is compatible with the detection of LTC4-Me. 5 μL of diluted LTC4-d2 conjugate (according to manufacturer's protocol) are added to all wells of the assay plate and the contents gently mixed and incubated for 5 minutes at room temperature. […] The percent inhibition for each point of an inhibition curve is calculated after data interpolation using the LTC4-Me standard curve, to convert the HTRF signal to the amount of LTC4-Me produced within the LTC4S catalyzed reaction on each plate. The data is analyzed using parametric curve fitting to determine IC50 values of LTC4S inhibitors.

[2] = target: T1, LTC4S; assay: Human whole blood HTRF assay (LTC4 release after calcium ionophore A23187); format: cell-based; settings: calcium ionophore A23187 stimulation, LTC4 by HTRF
[3] = human whole blood HTRF IC50, human whole blood diluted 1:3, 4 h incubation
[4] = 0.75 nM enzyme, 400 μM GSH, 5 μM LTA4-Me, 15 min pre-incubation, read-out: human LTC4S IC50 (enzymatic assay)
[5] = human whole blood diluted 1:3, 4 h incubation, read-out: human whole blood HTRF IC50

| Compound | IC50 [1] [nM] | IC50 [2, 3] [nM] | IC50 [1, 4] [nM] | IC50 [2, 5] [nM] |
| --- | --- | --- | --- | --- |
| O=C1CCCC2(CCN(c3cn(-c4ccc(F)cc4)nn3)CC2)N1c1ccc(Cl)c(F)c1 [Example 29, 1-(4-chloro-3-fluorophenyl)-9-(1-(4-fluorophenyl)-1H-1,2,3-triazol-4-yl)-1,9-diazaspiro[5.5]undecan-2-one] | 57 | 180 |  |  |
| O=C1CCCC2(CCN(c3nsc(N4CCCC4)n3)CC2)N1c1ccc(Cl)c(F)c1 [Example 25, 1-(4-chloro-3-fluorophenyl)-9-(5-(pyrrolidin-1-yl)-1,2,4-thiadiazol-3-yl)-1,9-diazaspiro[5.5]undecan-2-one] |  |  | 62 | 170 |
| O=C1CCCC2(CCN(c3ncc(-c4ccc(F)cc4)o3)CC2)N1c1ccc(Cl)c(F)c1 [Example 21, 1-(4-chloro-3-fluorophenyl)-9-(5-(4-fluorophenyl)oxazol-2-yl)-1,9-diazaspiro[5.5]undecan-2-one] |  |  | 4 | 7 |
| O=C1CCCC2(CCN(c3ccnc(N4CC5(CC5)C4)n3)CC2)N1c1ccc(Cl)c(F)c1 [Example 35a, 9-(2-(5-azaspiro[2.3]hexan-5-yl)pyrimidin-4-yl)-1-(4-chloro-3-fluorophenyl)-1,9-diazaspiro[5.5]undecan-2-one] | 12 | 40 |  |  |
| O=C1CCCC2(CCN(c3nccc(C(F)(F)F)n3)CC2)N1c1ccc(Cl)c(F)c1 [Example 3, 1-(4-chloro-3-fluorophenyl)-9-(4-(trifluoromethyl)pyrimidin-2-yl)-1,9-diazaspiro[5.5]undecan-2-one] |  |  | 8 | 180 |
| O=C1CCCC2(CCN(c3ncnc(N4CC(C(F)(F)F)C4)c3F)CC2)N1c1ccc(Cl)c(F)c1 [Example 37, 1-(4-chloro-3-fluorophenyl)-9-(5-fluoro-6-(3-(trifluoromethyl)azetidin-1-yl)pyrimidin-4-yl)-1,9-diazaspiro[5.5]undecan-2-one] |  |  | 12 | 120 |
| O=C1CCCC2(CCN(c3nncc(C4CCCC4)n3)CC2)N1c1ccc(Cl)c(F)c1 [Example 20, 1-(4-chloro-3-fluorophenyl)-9-(5-cyclopentyl-1,2,4-triazin-3-yl)-1,9-diazaspiro[5.5]undecan-2-one] |  |  | 12 | 64 |
| O=C1CCCC2(CCN(c3ncc(C4CCCCC4)o3)CC2)N1c1ccc(Cl)c(F)c1 [Example 27, 1-(4-chloro-3-fluorophenyl)-9-(5-cyclohexyloxazol-2-yl)-1,9-diazaspiro[5.5]undecan-2-one] |  |  | 25 | 59 |
| Cn1cc(-c2ccc(F)cc2)nc(N2CCC3(CCCC(=O)N3c3ccc(Cl)c(F)c3)CC2)c1=O [Example 9, 1-(4-chloro-3-fluorophenyl)-9-(6-(4-fluorophenyl)-4-methyl-3-oxo-3,4-dihydropyrazin-2-yl)-1,9-diazaspiro[5.5]undecan-2-one] |  |  | 2 | 48 |
